# Literature values in patent publication US7575866B2, “Ligand/binding partner bio-labeling systems” (priority 2003, dated 2009).
# Experiments:
# Mycobacterium avium DHFR = biological target: T1, Mycobacterium avium DHFR (Mycobacterium avium, UniProt O30463)
# T1 sequence (O30463 1-181): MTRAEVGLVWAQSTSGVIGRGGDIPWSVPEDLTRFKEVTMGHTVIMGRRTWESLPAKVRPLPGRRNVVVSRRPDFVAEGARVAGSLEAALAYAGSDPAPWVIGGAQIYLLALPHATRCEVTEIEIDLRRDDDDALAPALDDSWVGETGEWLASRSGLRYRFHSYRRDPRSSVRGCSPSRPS
compound,measurement,setting,value
"2,4-diamino-5-[(2-methoxy-4-carboxybutyloxy)benzyl]pyrimidine",selective binding to Mycobacterium avium DHFR,Mycobacterium avium DHFR,selectively bind
"CN(Cc1cnc2nc(N)nc(N)c2n1)c1ccc(C(=O)N[C@@H](CCC(=O)O)C(=O)O)cc1 [MTX, Methotrexate]",concentration at which toxicity observed,human leukocytes,2000 nM
same,extracellular concentration at which DNA damage has been observed,human cells,10 µM
CCCCc1c(CN(C)c2ccc(C(=O)N[C@@H](CCC(=O)O)C(=O)O)cc2)cnc2nc(N)nc(N)c12 [5-butyl-5-deazamethotrexate],inhibitory effect on DHFR lowered relative to MTX,DHFR,17 fold
